Results on eleven compounds are retold here after PubChem BioAssay (NCI).

Common to all, as to assay: NCI tumour cell line growth inhibition, 48 h
Test [1] concerns NCI-H460 lung.
The subject of test [2] is SF-268 CNS.
Test [3] has as its system SF-295 CNS.
The subject of test [4] is SNB-75 CNS.
For test [5], the system named is OVCAR-8 ovarian.
In test [6] the test system is HT29 colon.
Test [7] relates to NCI-H23 lung.
For test [8], the system named is M14 melanoma.
The subject of test [9] is LOX IMVI melanoma.
The test system of test [10] is UO-31 renal.
Test [11] deals with SR leukemia.
For test [12], the system named is EKVX NSCLC.

Molecules are shown by their SMILES. Values joined by “and” are separate entries in the source; they are usually repeats but may differ in a detail not shown here. Identical values can stand only once.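 Values below derive from 48-hour exposures of cells grown in 96-well plates, with endpoints linearly interpolated between the two concentrations bracketing the appropriate inhibition level. The concentration for 50% growth inhibition is given as GI50. The concentration for full growth arrest is given as TGI.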

With `C/C=C(/C)C(=O)O[C@H]1C(C)=C[C@]23C(=O)[C@@H](C=C(COC(C)=O)[C@@H](O)[C@]12O)[C@H]1[C@@H](C[C@H]3C)[C@@]1(C)OC(=O)/C(C)=C\C`, the TGI in test [1] worked out at 4.09 µM; in test [2], 4.73 µM; in [3] it was 5.01 µM; in [4], 4.53 µM; in test [5], 11.3 µM; in test [6], 1.49 µM. Besides, the TGI was 5.19 µM in test [7]; 5.47 µM in test [8]; 9.65 µM in test [9]; 2.16 µM in [10]; 10.9 µM in test [11]; 6.38 µM in test [12].

With `CCCCc1c2c(nc3c1CCC/C3=C\c1ccccc1)C(=O)C(CN(C)C)CC2` (stereo not drawn), the TGI was 34.5 µM in [1]; 35.6 µM in [2]; 33.3 µM in test [3]; 27 µM in [4]; 46.1 µM in test [5]; 28.9 µM in test [6]. Moreover, the TGI was found to be 31.8 µM in [7]; 33.7 µM in test [8]; 30.9 µM in [9]; 33.7 µM in test [10]; 9.17 µM in test [11]; 36.1 µM in test [12].

As for `N#CC12C3C4CC5C6C4C1C6C(O)(C53)N2Cc1ccccc1` (stereo not drawn), the TGI in test [1], in [2], in [3], in test [4], in test [5] and in [6] was greater than 100 µM each time. Moreover, the TGI in test [7], in [8], in test [9], in [10], in test [11] and in test [12] was greater than 100 µM each time.

As for `N#CS/C(Cl)=C(/C(Cl)=C(Cl)Cl)[N+](=O)[O-]`, the TGI in test [1], in test [2], in test [3], in test [4], in [5] and in test [6] was greater than 100 µM each time. Besides, the TGI in [7] was greater than 100 µM; in test [8], greater than 100 µM; in test [9], 39.8 µM; in test [10], greater than 100 µM; in test [11], 53.9 µM; in [12], greater than 100 µM.

Consider `CC(=O)CCC[C@@H](C)[C@@H]1O[C@H]([C@@]2(C)CCC(=O)O2)C[C@H]2C(CSc3ccccc3)C(=O)O[C@@H]12` (stereo partly drawn), for which the TGI was greater than 57.5 µM in test [1]; 55.1 µM in test [2]; greater than 66 µM in [3]; greater than 59.4 µM in test [4]; greater than 50.8 µM in test [5]; 40.1 µM in [6]. In addition, the TGI in test [7] is 49.3 µM; in test [8] it was 26.8 µM; in [9], 38.2 µM; in test [10] it was 31.1 µM; in test [11], greater than 100 µM; in test [12], 24.3 µM.

Turning to `CC1(C)C(=O)N=C(N)N1C(=O)OCc1ccccc1`, the TGI in test [1], in [2], in test [3], in [4], in test [5] and in test [6] was greater than 100 µM in each case. Also, the TGI in test [7], in [8], in test [9], in [10], in [11] and in test [12] was greater than 100 µM throughout.

For `O=C1CCCc2cc3c(cc21)CCC3C(=O)O` (stereo not drawn), the TGI in test [1], in test [2], in test [3], in [4], in [5] and in test [6] was greater than 100 µM throughout. The TGI in test [7], in [8], in [9], in test [10], in test [11] and in test [12] was greater than 100 µM each time.

In the case of `CCOC(=O)CCC(NC(=O)c1ccc(Nc2nc3cc(C(F)(F)F)ccc3nc2-c2ccccc2)cc1)C(=O)OCC` (stereo not drawn), the TGI in test [1], in test [2], in test [3], in test [4], in [5] and in test [6] was greater than 100 µM each time. The TGI in test [7], in test [8], in [9], in test [10], in test [11] and in test [12] was greater than 100 µM in each case.

Regarding `CC1C[C@]2(C)C(=S)Nc3ccccc3[C@@H]2Nc2ccccc21` (stereo partly drawn), the TGI in [1] was found to be 29.6 µM; in [2], 16.4 µM; in [3], 37.9 µM; in test [4], 61 µM; in [5], 29.5 µM; in [6] it was 26.6 µM. Moreover, the TGI in test [7] was 33.9 µM; in [8], 32.4 µM; in test [9] it was 28.5 µM; in test [10] it was 32.8 µM; in [11] it was greater than 100 µM; in [12], 57.5 µM.

Consider `C=C1C(=O)C23CC1C[C@H](OC(C)=O)C2C1(C)C(OC(C)=O)C[C@H](O)C(C)(C)[C@H]1C(O)[C@@H]3OC(C)=O` (stereo partly drawn), for which the TGI in test [1] was greater than 60 µM; in [2], 28.5 µM; in [3], greater than 57.6 µM; in test [4] it was 36.3 µM; in test [5], 22 µM; in test [6] it was 30 µM. Moreover, the TGI worked out at 26.8 µM in [7]; 18.7 µM in [8]; 30.3 µM in test [9]; 31.2 µM in [10]; 27.4 µM in test [11]; 29.1 µM in [12].

With `Cn1c2nc3ccccc3c-2cc2ccccc21`, the TGI was 11.9 µM and 12.9 µM in test [1]; 17 µM and 40.3 µM in [2]; > 40.5 µM and 20.8 µM in [3]; 12.7 µM and 39.1 µM in test [4]; 13.6 µM and > 100 µM in test [5]; 18.3 µM and 31.4 µM in test [6]. Besides, the TGI in test [7] was 11.5 µM and 23.2 µM; in [8], > 42.2 µM and 23.6 µM; in test [9], > 31.8 µM and 22.5 µM; in [10], 11.6 µM and 37.7 µM; in test [11] it was 7.25 µM and 10.7 µM; in test [12], 15.6 µM and 33.9 µM. In addition, the GI50 was 3.95 µM and 8.47 µM in test [2]; 3.22 µM and 13.4 µM in test [4]; 2.48 µM and 7.18 µM in [5]; 3.35 µM and 10.6 µM in [7]; 4.29 µM and 11.2 µM in test [8]; 2.6 µM and 5.47 µM in test [10].
